{"source": "paper PMC4128046", "about": "“Effect of a toggle switch mutation in TM6 of the human adenosine A3 receptor on Gi protein-dependent signalling and Gi-independent receptor internalization” (British Journal of Pharmacology, 2014)", "format_in_all_cases": "cell-based", "key": {"A3 W243F-YFP [1]": {"target": "T1, A3 W243F-YFP (Homo sapiens, UniProt P0DMS8, W243F)", "T1 construct": "Full length A3 W243F-YFP was excised and subcloned into a native pcDNA3.1 vector; expressed in transfected cells", "T1 sequence (P0DMS8 1-318 W243F)": "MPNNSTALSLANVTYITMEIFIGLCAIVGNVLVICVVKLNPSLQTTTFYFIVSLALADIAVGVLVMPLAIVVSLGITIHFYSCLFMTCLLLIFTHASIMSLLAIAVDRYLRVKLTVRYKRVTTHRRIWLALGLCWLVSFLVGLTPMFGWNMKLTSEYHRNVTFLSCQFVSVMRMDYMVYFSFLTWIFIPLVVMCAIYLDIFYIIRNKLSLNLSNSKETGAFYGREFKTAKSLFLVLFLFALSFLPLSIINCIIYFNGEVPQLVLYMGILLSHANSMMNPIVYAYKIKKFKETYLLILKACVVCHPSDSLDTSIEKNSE", "assay": "[3H]-cAMP accumulation assay, A3 W243F-YFP", "conditions": "for inhibition of FSK-stimulated [3H]-cAMP accumulation after 5 h agonist stimulation / Emax: A3 W243F-YFP cells; for inhibition of FSK-stimulated [3H]-cAMP accumulation after 5 h agonist stimulation: 5 h stimulation, compared with 1 h; for Emax: read-out: Maximum response (% inhibition of 3 μM FSK), cAMP accumulation assay, 1 h stimulation", "protocol": "On the day of analysis, cells were labelled with [^3H]-adenine (2 μCi·mL^−1) in a total volume of 600 μL per well for 2 h at 37°C/5% CO2 in normal growth medium. After 2 h, the [^3H]-adenine-containing medium was removed; cells washed once in serum-free medium and fresh serum-free medium, containing 10 μM rolipram, added. […] […] The assay was terminated by the addition of 50 μL concentrated HCl to each well. The levels of [^3H]-cAMP incorporated were measured by sequential Dowex and alumina chromatography and the efficiency of each column was determined by the recovery of [^14C]-cAMP as described by Donaldson et al. ([1988]).\n(§1) A basal and FSK control was included in each separate concentration-response CRE-SPAP gene transcription assay and cAMP accumulation assay to allow the responses in each cell line to be expressed as an inhibition of FSK-stimulated SPAP production."}, "A3-YFP": {"target": "T2, A3-YFP (Homo sapiens, UniProt P0DMS8)", "T2 construct": "cDNA encoding the full length human A3 receptor; expressed in transfected cells", "T2 sequence (P0DMS8 1-318)": "T1 sequence (P0DMS8 1-318 W243F) with F243W", "assay": "Confocal imaging of receptor internalization and membrane YFP fluorescence, A3-YFP", "conditions": "A3-YFP cells, 10 μM agonist", "protocol": "(§2) Live-cell BiFC imaging was performed on A3-vYc/β-arrestin2-vYnL and A3 W243F-vYc/β-arrestin2-vYnL cells grown in Nunc Labtek 8-well plates, and images obtained using a Zeiss 710 confocal microscope (Carl Zeiss GmbH, Jena, Germany) fitted with a 63× plan-Apochromat NA1.4 Ph3 oil-immersion objective. Live-cell imaging analysis was performed on A3-YFP or A3 W243F-YFP CRE-SPAP cells and transiently expressed SNAP-A3 or SNAP-A3 W243F grown in Nunc Labtek 8-well plates, and images obtained using a Zeiss LSM5 Exciter confocal microscope (Carl Zeiss GmbH) fitted with a 63× plan-Apochromat NA1.4 DIC oil-immersion objective. For both YFP, BiFC and BG-AF488 label, a 488 nm argon laser was used to excite the fluorophore and emission was detected using a BP505-530 filter. Cells expressing the SNAP-tagged receptors were labelled with 1 μM SNAP-surface BG-AF488 (New England Biolabs) in DMEM/F12 medium for 30 min at 37°C/5% CO2. Before all imaging experiments, normal growth medium or medium containing BG-AF488 was removed and cells were washed twice in HEPES-buffered saline solution (HBSS; 25 mM HEPES, 10 mM glucose, 146 mM NaCl, 5 mM KCl, 1 mM MgSO4, 2 mM sodium pyruvate, 1.3 mM CaCl2) and fresh HBSS was added for analysis. […] Images of A3-YFP and A3 W243F-YFP cells were taken with same pinhole diameter, laser power, gain and offset to allow comparison of YFP fluorescence. To obtain fluorescence intensity values, a region of interest was drawn around the plasma membrane of 10 cells per image in Zeiss AIM 4.2 software (Carl Zeiss GmbH)."}, "A3 W243F-YFP [2]": {"target": "T1, A3 W243F-YFP", "assay": "Confocal imaging of receptor internalization and membrane YFP fluorescence, A3 W243F-YFP", "conditions": "A3 W243F-YFP cells, 10 μM agonist", "protocol": "as §2"}, "A3 W243F-YFP [3]": {"target": "T1, A3 W243F-YFP", "assay": "CRE-SPAP gene transcription assay, A3 W243F-YFP", "conditions": "A3 W243F-YFP cells", "protocol": "One day before analysis, normal growth medium was removed from the cells and replaced with serum-free medium (DMEM/F12 containing 2 mM L-glutamine). Where applicable, PTx (100 ng·mL^−1) was added at this stage. On the day of the assay, the medium was removed and replaced with fresh serum-free medium containing the required concentration of the agonist, and cells were incubated for 1 h at 37°C/5% CO2. After 1 h, the required concentration of forskolin (FSK) was added, and cells were incubated for a further 5 h at 37°C/5% CO2. Following the 5 h incubation, all medium was removed from the cells, 40 μL of fresh serum-free medium was added to each well and cells incubated for a further 1 h at 37°C/5% CO2. The plates were then incubated at 65°C for 30 min, to destroy any endogenous alkaline phosphatases. Plates were cooled to room temperature and 100 μL of 5 mM 4-nitrophenyl phosphate in diethanolamine-containing buffer [10% (v v^−1) diethanolamine, 280 mM NaCl, 500 μM MgCl2, pH 9.85] was added to each well; the plates were then incubated at 37°C for 25 min. The absorbance at 405 nm was measured using a Dynex MRX plate reader (Chelmsford, MA, USA).\nas §1"}}, "note": "Where a chain is given by its changes, count along the chain named."}
{"compound": "CCCCC#Cc1nc(NC)c2ncn([C@@H]3O[C@H](CO)[C@@H](O)[C@H]3O)c2n1", "note": "[HEMADO, 2-(1-hexynyl)-N-methyladenosine]", "values": [{"measurement": "inhibition of FSK-stimulated [3H]-cAMP accumulation after 5 h agonist stimulation", "setting": "A3 W243F-YFP [1]", "value": "very little inhibition"}, {"measurement": "Emax", "setting": "A3 W243F-YFP [1]", "value": "43.2 ± 4.3", "unit": "%"}, {"measurement": "EC50", "setting": "A3 W243F-YFP [1]; read-out: pEC50 (cAMP accumulation assay) (converted)", "value": 9.55, "unit": "nM"}, {"measurement": "internalization of the receptor seen in confocal images", "setting": "A3-YFP", "value": "substantial internalization"}, {"measurement": "reduction in membrane fluorescence", "setting": "A3-YFP", "value": 50, "unit": "%"}, {"measurement": "internalization of the receptor seen in confocal images", "setting": "A3 W243F-YFP [2]", "value": "unable to stimulate internalization"}, {"measurement": "reduction in membrane fluorescence", "setting": "A3 W243F-YFP [2]", "value": "no significant change"}, {"measurement": "Maximum response (% inhibition of 10 μM FSK), CRE-SPAP assay", "setting": "A3 W243F-YFP [3]", "value": "No inhibition"}, {"measurement": "maximum inhibition of SPAP production in response to 3 μM FSK", "setting": "A3 W243F-YFP [3]; 5 h stimulation, 3 μM FSK", "value": "no significant decrease"}]}
{"compound": "CCNC(=O)[C@H]1O[C@@H](n2cnc3c(N)ncnc32)[C@H](O)[C@@H]1O", "note": "[NECA, 5-(N-ethylcarboxamido)adenosine]", "values": [{"measurement": "inhibition of FSK-stimulated [3H]-cAMP accumulation after 5 h agonist stimulation", "setting": "A3 W243F-YFP [1]", "value": "reduced the maximal inhibition"}, {"measurement": "Emax", "setting": "A3 W243F-YFP [1]", "value": "49.7 ± 2", "unit": "%"}, {"measurement": "internalization of the receptor seen in confocal images", "setting": "A3-YFP", "value": "rapid internalization"}, {"measurement": "reduction in membrane fluorescence", "setting": "A3-YFP", "value": 50, "unit": "%"}, {"measurement": "internalization of the receptor seen in confocal images", "setting": "A3 W243F-YFP [2]", "value": "rapid internalization"}, {"measurement": "agonist-mediated inhibition of SPAP production after PTx pre-incubation", "setting": "A3 W243F-YFP [3]; PTx 100 ng·mL−1 overnight, 3 μM FSK", "value": "abolished"}, {"measurement": "SPAP production in the absence of FSK (Gs coupling)", "setting": "A3 W243F-YFP [3]; no FSK, with or without PTx", "value": "no increase in SPAP production"}, {"measurement": "Emax", "setting": "A3 W243F-YFP [3]; read-out: Maximum response (% inhibition of 10 μM FSK), CRE-SPAP assay", "value": "34.8 ± 6.7", "unit": "%"}]}
